The values below come from PubChem BioAssay AID248 (DTP/NCI, 2004).

Where “and” joins values, the source holds several entries; their conditions need not be identical. Identical values can stand only once. Inconclusive results and toxic doses are left out.

This assay deals with L1210 leukemia ip in BDF1 mice, survival T/C. Nature of the assay: NCI In Vivo Anticancer Drug Screen. Data for tumor model L1210 Leukemia (intraperitoneal) in B6D2F1 (BDF1) mice. Particulars: endpoint: mean survival time, higher = longer survival. The method, boiled down:
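Transplanted-tumor mice were given test agent; controls received vehicle only. Survival readings from the two groups were divided (treated over control).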

Setting [1] is: dose: 100.0 mg/kg/injection, schedule: Q01DX001 (ip), vehicle: saline.
The mark [2] stands for this setting: dose: 100.0 mg/kg/injection, schedule: Q04DX002 (ip), vehicle: Klucel (hydroxypropylcellulose) (HPC).
Setting [3] is: dose: 200.0 mg/kg/injection, schedule: Q01DX001 (ip), vehicle: saline.
Setting [4] is: dose: 200.0 mg/kg/injection, schedule: Q04DX002 (ip), vehicle: Klucel (hydroxypropylcellulose) (HPC).
Where [5] appears, read: dose: 400.0 mg/kg/injection, schedule: Q01DX001 (ip), vehicle: saline.
[6] abbreviates: dose: 400.0 mg/kg/injection, schedule: Q04DX002 (ip), vehicle: Klucel (hydroxypropylcellulose) (HPC).
Where [7] appears, read: dose: 100.0 mg/kg/injection, schedule: Q04DX003 (ip), vehicle: saline.
Setting [8] is: dose: 100.0 mg/kg/injection, schedule: Q04DX003 (ip), vehicle: Klucel (hydroxypropylcellulose) (HPC).
Where [9] appears, read: dose: 200.0 mg/kg/injection, schedule: Q04DX003 (ip), vehicle: Klucel (hydroxypropylcellulose) (HPC).
Setting [10] is: dose: 400.0 mg/kg/injection, schedule: Q04DX003 (ip), vehicle: Klucel (hydroxypropylcellulose) (HPC).

In the case of `O=NN(CCCl)C(=O)NC1CCC(CCl)CC1` (stereo not drawn), the T/C by setting is: (dose: 8.0 mg/kg/injection, schedule: Q01DX001 (ip), vehicle: saline with Tween-80) 114 % of control; (dose: 12.0 mg/kg/injection, schedule: Q01DX001 (ip), vehicle: saline with Tween-80) 181 % of control; (dose: 18.0 mg/kg/injection, schedule: Q01DX001 (ip), vehicle: saline with Tween-80) 183 % of control; (dose: 26.0 mg/kg/injection, schedule: Q01DX001 (ip), vehicle: saline with Tween-80) 320 % of control; (dose: 40.0 mg/kg/injection, schedule: Q01DX001 (ip), vehicle: saline with Tween-80) 310 % of control; (dose: 60.0 mg/kg/injection, schedule: Q01DX001 (ip), vehicle: saline with Tween-80) 372 % of control. In addition, the T/C is 297 % of control (dose: 90.0 mg/kg/injection, schedule: Q01DX001 (ip), vehicle: saline with Tween-80) and 187 % of control (dose: 200.0 mg/kg/injection, schedule: Q01DX001 (ip), vehicle: saline with Tween-80).
Regarding `CCOC(=O)CSC#N`, the T/C was 101 % of control under setting [1]; 95 % of control under setting [2]; 101 % of control under setting [3]; 91 % of control under setting [4]; 95 % of control under setting [5]; 107 % of control under setting [6].
`COC(=O)N1C=Cc2ccccc2C1C#N` (stereo not drawn): the T/C under setting [7] is 107 % of control.
`C/C=C(/C)C(=O)O[C@H]1CCN2CC=C(COC(=O)[C@@](O)([C@H](C)OC)C(C)(C)O)[C@H]12`: the T/C reads like this: (dose: 5.0 mg/kg/injection, schedule: Q01DX001 (ip), vehicle: other) 100 % of control; (dose: 7.5 mg/kg/injection, schedule: Q04DX003 (ip), vehicle: Klucel (hydroxypropylcellulose) (HPC)) 97 % of control; (dose: 10.0 mg/kg/injection, schedule: Q01DX001 (ip), vehicle: other) 105 % of control; (dose: 15.0 mg/kg/injection, schedule: Q04DX003 (ip), vehicle: Klucel (hydroxypropylcellulose) (HPC)) 103 % of control; (dose: 20.0 mg/kg/injection, schedule: Q01DX001 (ip), vehicle: other) 100 % of control; (dose: 30.0 mg/kg/injection, schedule: Q04DX003 (ip), vehicle: Klucel (hydroxypropylcellulose) (HPC)) 103 % of control. In addition, the T/C is, setting by setting: (dose: 40.0 mg/kg/injection, schedule: Q01DX001 (ip), vehicle: other) 102 % of control; (dose: 60.0 mg/kg/injection, schedule: Q04DX003 (ip), vehicle: Klucel (hydroxypropylcellulose) (HPC)) 97 % of control; (dose: 80.0 mg/kg/injection, schedule: Q01DX001 (ip), vehicle: other) 103 % of control.
As for `CC(=O)N(/C=C/C=C/C=C1\C(=O)N(c2ccc(S(=O)(=O)O)cc2)N=C1C)c1ccccc1`, the T/C under setting [1] was 99 % of control, the T/C under setting [3] is 98 % of control and the T/C under setting [5] is 88 % of control.
Regarding `O=C(c1ccc(Cl)cc1)C(O)c1ccc(Cl)cc1` (stereo not drawn), the T/C runs as follows: (dose: 50.0 mg/kg/injection, schedule: Q01DX001 (ip), vehicle: saline) 96 % of control; under setting [1], 90 % of control; (dose: 100.0 mg/kg/injection, schedule: Q04DX003 (ip), vehicle: saline with Tween-80) 90 % of control; under setting [3], 96 % of control; (dose: 200.0 mg/kg/injection, schedule: Q04DX003 (ip), vehicle: saline with Tween-80) 92 % of control; under setting [5], 100 % of control. Also, the T/C (dose: 400.0 mg/kg/injection, schedule: Q04DX003 (ip), vehicle: saline with Tween-80) is 86 % of control.
As for `C1=CCC2CSCC2C1` (stereo not drawn), the T/C is 98 % of control (dose: 75.0 mg/kg/injection, schedule: Q01DX009 (ip), vehicle: saline sonified) and 98 % of control (dose: 150.0 mg/kg/injection, schedule: Q01DX009 (ip), vehicle: saline sonified).
Take `CC(=O)NC1=C(Nc2ccc(-c3ccc(NC4=C(NC(C)=O)C(=O)c5ccccc5C4=O)cc3)cc2)C(=O)c2ccccc2C1=O`: the T/C (dose: 3.12 mg/kg/injection, schedule: Q04DX003 (ip), vehicle: saline) was 96 % of control; the T/C (dose: 4.5 mg/kg/injection, schedule: Q01DX009 (ip), vehicle: saline) was 101 % of control; the T/C (dose: 6.25 mg/kg/injection, schedule: Q04DX003 (ip), vehicle: saline) was 98 % of control; the T/C (dose: 9.0 mg/kg/injection, schedule: Q01DX009 (ip), vehicle: saline) was 101 % of control; the T/C (dose: 12.5 mg/kg/injection, schedule: Q01DX001 (ip), vehicle: saline) is 95 % of control; the T/C (dose: 12.5 mg/kg/injection, schedule: Q04DX003 (ip), vehicle: saline) was 98 % of control. Moreover, for the setting “dose: 18.0 mg/kg/injection, schedule: Q04DX003 (ip), vehicle: saline”, the T/C was 87 % of control.
On to `O=C1CCSCC1`, for which the T/C under setting [1] was 107 % of control; the T/C (dose: 100.0 mg/kg/injection, schedule: Q01DX009 (ip), vehicle: saline) is 100 % of control; the T/C under setting [7] was 100 % of control; the T/C under setting [3] was 104 % of control; the T/C (dose: 200.0 mg/kg/injection, schedule: Q01DX009 (ip), vehicle: saline) was 95 % of control; the T/C (dose: 200.0 mg/kg/injection, schedule: Q04DX003 (ip), vehicle: saline) was 101 % of control. Also, the T/C reads like this: under setting [5], 95 % of control; (dose: 400.0 mg/kg/injection, schedule: Q01DX009 (ip), vehicle: saline) 95 % of control; (dose: 400.0 mg/kg/injection, schedule: Q04DX003 (ip), vehicle: saline) 104 % of control.
For the compound `Cc1ccc(N=Nc2ccc(C)cc2NC(=O)Nc2cc([N+](=O)[O-])ccc2F)cc1`, the T/C is 93 % of control (dose: 100.0 mg/kg/injection, schedule: Q04DX002 (ip), vehicle: saline); 108 % of control (dose: 200.0 mg/kg/injection, schedule: Q04DX002 (ip), vehicle: saline); 90 % of control (dose: 400.0 mg/kg/injection, schedule: Q04DX002 (ip), vehicle: saline).
On to `Cc1ccc(S(=O)(=O)OCC(COS(=O)(=O)c2ccc(C)cc2)(COS(=O)(=O)c2ccc(C)cc2)COS(=O)(=O)c2ccc(C)cc2)cc1`, for which the T/C (dose: 50.0 mg/kg/injection, schedule: Q04DX002 (ip), vehicle: Klucel (hydroxypropylcellulose) (HPC)) is 97 % of control; the T/C under setting [2] was 93 % of control and 105 % of control; the T/C under setting [4] was 102 % of control; the T/C under setting [6] was 110 % of control.
In the case of `CC(=O)c1ccc(CC2CC3CCC2C3)cc1` (stereo not drawn), the T/C by setting is: (dose: 100.0 mg/kg/injection, schedule: Q01DX001 (ip), vehicle: Klucel (hydroxypropylcellulose) (HPC)) 112 % of control; under setting [8], 94 % of control; (dose: 200.0 mg/kg/injection, schedule: Q01DX001 (ip), vehicle: Klucel (hydroxypropylcellulose) (HPC)) 96 % of control; under setting [9], 89 % of control; (dose: 400.0 mg/kg/injection, schedule: Q01DX001 (ip), vehicle: Klucel (hydroxypropylcellulose) (HPC)) 89 % of control; under setting [10], 98 % of control.
For `NC(N)=NC(CC(=O)O)C(=O)O` (stereo not drawn), the T/C (dose: 100.0 mg/kg/injection, schedule: Q01DX Z (ip), vehicle: methylcellulose (MC)) was 92 % of control and the T/C (dose: 200.0 mg/kg/injection, schedule: Q01DX Z (ip), vehicle: methylcellulose (MC)) was 92 % of control.
As for `COc1ccc(CCNC(=O)c2ccc(Cl)c(Cl)c2)cc1OC`, the T/C is, setting by setting: (dose: 25.0 mg/kg/injection, schedule: Q04DX002 (ip), vehicle: saline with Tween-80) 100 % of control; (dose: 50.0 mg/kg/injection, schedule: Q04DX002 (ip), vehicle: saline with Tween-80) 96 % of control; (dose: 100.0 mg/kg/injection, schedule: Q04DX002 (ip), vehicle: saline with Tween-80) 106 % of control and 107 % of control.
Turning to `Cc1ccc(N=Nc2sc(N)nc2C)c(C)c1`, the T/C is, setting by setting: (dose: 75.0 mg/kg/injection, schedule: Q01DX001 (ip), vehicle: saline) 97 % of control; (dose: 150.0 mg/kg/injection, schedule: Q01DX001 (ip), vehicle: saline) 103 % of control.
On to `CCCCCCCCCCS(=O)(=O)CCS(=O)(=O)CCCCCCCCCC`, for which the T/C is 97 % of control under setting [8], 95 % of control under setting [9] and 97 % of control under setting [10].
As to `CCN(CC)c1ccc(/C=C(/S)C(=O)O)cc1`, the T/C runs as follows: under setting [1], 89 % of control; under setting [3], 92 % of control; under setting [5], 92 % of control.
